One assay has as its target T1, P2X2 F303M (Homo sapiens, UniProt Q9UBL9, F303M).
T1 construct: expressed in transfected cells; host or cells: Saccharomyces cerevisiae BY4741 derivative, genome-integrated, galactose-inducible
The assay can be described thus: Site-saturation screen of ligand-binding domain with ATP, F303M. The assay is classed as cell-based. The note with it: 500 μM ATP, ± sd. The source says:
(§1) The yeast P2X2 screening platform poses an opportunity to probe the structure-function of the ligand-binding domain in detail. The conserved P2X “NFR” motif at residues 300 to 302 is directly involved in bonding to the ATP triphosphate moiety ([41]), so we mutagenized residues at or near this motif (298–304), ultimately covering 133 variants (7 sites, 19 residues each). […] We compared our results to phylogenetic data based on a multiple sequence alignment (MSA) from a curated set of 419 related P2X homologs (Figs. 3B, and S5; Table S1).
(§2) Figure 3 Structure-function analysis of the ligand binding domain.A, heat map summarizing the screening data of ATP with seven site-saturation libraries surrounding the NFR-motif. B, sequence-logo plot of the mutagenized residues and percent identity scores as determined from MSA. C, homology model of P2X2 colored by sequence conservation as calculated from a multiple sequence alignment of 419 related P2X genes. Conservation is scored on a log scale where maroon is more conserved and blue is less conserved. D, ATP in the ligand-binding pocket of P2X2. […]
(§3) GCaMP assays were performed as follows. […] Cells were loaded onto a black, clear bottom microplate and imaged on a FlexStation3 plate reader. […] Fluorescence was measured with an excitation at 485 nm, and emission 525 nm. […] For strains with mScarlet, fluorescence was read with excitation 570 nm/emission 610 nm. […]

The subject of a further assay is P2X2 F301 mutants. The experiment in a line: Site-saturation screen of ligand-binding domain with ATP, F301 mutants. The assay is classed as cell-based, human. The settings on record: 500 μM ATP.
Text: as §1, §2, §3

Another assay concerns the target T2, human P2X2 receptor (Homo sapiens, UniProt Q9UBL9).
T2 construct: expressed in transfected cells; host or cells: S. cerevisiae BY4741 background, P2X2 genome-integrated under a galactose-inducible promoter
T2 sequence (Q9UBL9 1-471): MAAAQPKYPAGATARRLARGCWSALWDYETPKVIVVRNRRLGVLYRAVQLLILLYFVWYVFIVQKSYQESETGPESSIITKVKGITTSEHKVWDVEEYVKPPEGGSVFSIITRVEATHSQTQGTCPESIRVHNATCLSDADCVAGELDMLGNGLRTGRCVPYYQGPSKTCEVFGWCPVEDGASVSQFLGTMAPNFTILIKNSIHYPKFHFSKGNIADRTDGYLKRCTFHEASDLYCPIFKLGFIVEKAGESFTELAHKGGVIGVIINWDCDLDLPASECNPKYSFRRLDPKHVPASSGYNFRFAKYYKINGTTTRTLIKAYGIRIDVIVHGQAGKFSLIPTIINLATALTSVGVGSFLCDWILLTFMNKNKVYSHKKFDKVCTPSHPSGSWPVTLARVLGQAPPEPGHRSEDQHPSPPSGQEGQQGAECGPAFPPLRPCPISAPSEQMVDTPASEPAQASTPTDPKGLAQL
The experiment in a line: GCaMP calcium assay of P2X2 expressed in yeast S. cerevisiae, agonist response. The format is cell-based. An excerpt:
Although P2X receptors are expressed in many eukaryotic organisms including some fungi ([24]), they are not present in S. cerevisiae. For recombinant expression to yield functional P2X channels, receptor proteins must be correctly folded, assembled into trimers, and efficiently trafficked to the plasma membrane. To assess whether P2X ion channels could functionally gate in S. cerevisiae the canonical isoforms of P2X1-7 were co-expressed with aequorin, a calcium-activated photoprotein from the jellyfish Aequorea victoria.
Genetic knockouts of the calnexin homolog (ΔCne1p) and vacuolar calcium transporter (Δ Vcx1p) (n = 3) were compared to the WT yeast strain (n = 2). […] Statistical analysis was performed using one-way ANOVA with Dunnett’s multiple comparisons test where ∗∗ is p ≤ 0.01. […] Yeast were injected with ATP at 21 s and onset rates from the last six points (40–48 s) were used for calculating the dose response in (D). E and F, kinetic and dose–response measurements of P2X2 with the GCaMP reporter with ATP (n = 4), partial agonist BzATP (n = 3), and agonist 2-chloro-ATP (n = 4). Figures (D and F) share the figure legend with (C). […] Suramin was pre-equilibrated with P2X2-yeast for 10 min and 5 μM ATP was injected.
To expand the assay throughput to accommodate several 96-well plates at a time, we required the acquisition of short-duration signals. Since GCaMP signals are typically measured in terms of ΔF/F0, where ΔF is Fmax-Fmin, and since the signal takes several minutes to reach Fmax, we instead attempted to correlate the rate of signal onset (rather than its amplitude) with channel activity.
Having optimized our yeast strains and assay throughput, we sought to further validate the function of human P2X2 in the yeast host.
GCaMP assays were performed as follows. P2X2 GCaMP strains were designed with a bi-cistronic reporter, in which the GCaMP protein was followed by a 2A peptide and a mScarletI reporter ([53]). The co-translated mScarletI was designed to act as a control for plasmid loss, GCaMP breakage via nonsense mutation, and contamination. […] P2X2-GCaMP strains were cultured and induced as previously described. Samples were induced for 24 h to allow for the accumulation of the mature GCaMP protein. Cells were washed three times in 0.1 M MES/Tris buffer and resuspended with MES/Tris with supplemental calcium. Cells were loaded onto a black, clear bottom microplate and imaged on a FlexStation3 plate reader. Samples were imaged in “flex” mode. Samples were imaged for 48 s at an interval of 1.6 s. Fluorescence was measured with an excitation at 485 nm, and emission 525 nm. At the 21 s mark, 100 μl ligand solution was transferred to the cells. For strains with mScarlet, fluorescence was read with excitation 570 nm/emission 610 nm. Slopes were calculated from the last 6 points of measurement and were normalized to the positive control samples. Any replicate in which the mScarlet value was measured to be over 2 standard deviations less than the mean for that set was discarded from further analysis.

Each structure is given as a SMILES string.

T1 sequence (Q9UBL9 whole entry F303M): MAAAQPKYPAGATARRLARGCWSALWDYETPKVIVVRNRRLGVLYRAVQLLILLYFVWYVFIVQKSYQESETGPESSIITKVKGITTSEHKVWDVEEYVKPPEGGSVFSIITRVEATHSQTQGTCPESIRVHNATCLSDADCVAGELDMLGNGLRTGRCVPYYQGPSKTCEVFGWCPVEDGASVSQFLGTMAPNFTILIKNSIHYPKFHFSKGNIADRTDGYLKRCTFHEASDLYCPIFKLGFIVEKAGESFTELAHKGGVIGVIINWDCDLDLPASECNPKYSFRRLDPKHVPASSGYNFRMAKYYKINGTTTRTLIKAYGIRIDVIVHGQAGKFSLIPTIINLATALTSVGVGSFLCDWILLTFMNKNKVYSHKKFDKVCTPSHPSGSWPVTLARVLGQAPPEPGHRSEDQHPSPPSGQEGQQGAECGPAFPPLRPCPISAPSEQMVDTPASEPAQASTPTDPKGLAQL

As to `Nc1ncnc2c1ncn2[C@@H]1O[C@H](COP(=O)(O)OP(=O)(O)OP(=O)(O)O)[C@@H](O)[C@H]1O` [ATP], the “signal, % of WT signaling” value on P2X2 F303M is given as 71 ± 14%. Further, the signaling result with P2X2 F301 mutants is “None of the F301 mutants showed significant signaling”. Also, on human P2X2 receptor (GCaMP strain, saturating (500 μM) ATP, vs K81C K83C P2X2), the “maximum fluorescence compared to a negative control receptor” value stood at 12 fold. For the same compound, the “pEC50 (signaling onset rate ΔF/ΔT)” value at human P2X2 receptor (rapid GCaMP assay format, yeast, Fig. 1D) is on record as 5.88 ± 0.056. Also, at human P2X2 receptor (rapid GCaMP assay format, yeast, Fig. 1D, read-out: EC50 (signaling onset rate ΔF/ΔT)), the EC50 amounted to 1.3 µM.

Source of the values: paper PMC11063903, “Engineering a human P2X2 receptor with altered ligand selectivity in yeast” (The Journal of Biological Chemistry, 2024).
